In brackets after ≈: the same amount, converted by molar mass.
How the values were obtained:
[1] = test system: Botrtyis cinerea (Bc); assay: In vitro pathogen growth inhibition assay, Bc; assay type: cell-based; conditions: 48 h, ≥90% growth inhibition; 48 hours; vs 2% DMSO control; read-out: Compound Concentration (ppm) sufficient for ≥90% inhibition of Bc
Outline: (§1)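 Spores in 17% V8 liquid medium, or 1.5 mm Rs mycelial plugs in ¼ PDB, incubated with compound; final concentration checked by OD600 for precipitation. OD readings at 24 and 48 h, blank-subtracted, plus visual ratings; value is concentration giving ≥90% growth inhibition.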

[2] = test system: Collectotrichum graminicola (Cg); assay: In vitro pathogen growth inhibition assay, Cg; assay type: cell-based; conditions: 48 h, ≥90% growth inhibition; 48 hours; vs 2% DMSO control; read-out: Compound Concentration (ppm) sufficient for ≥90% inhibition of Cg
Outline: as §1

[3] = test system: Diplodia maydis (Dm); assay: In vitro pathogen growth inhibition assay, Dm; assay type: cell-based; conditions: Stenocarpella maydis, 48 h, ≥90% growth inhibition; 48 hours; vs 2% DMSO control; read-out: Compound Concentration (ppm) sufficient for ≥90% inhibition of Dm
Outline: (§2)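 Value reported is the compound concentration reaching ≥90% growth inhibition, from OD readings at 24 and 48 h after blank subtraction, confirmed visually. Inoculum was spores diluted in 17% V8 medium, except Rs, using 1.5 mm mycelial plugs in ¼ PDB; actual compound concentration corrected via OD600.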

[4] = test system: Fusarium moniliforme (Fm); assay: In vitro pathogen growth inhibition assay, Fm; assay type: cell-based; conditions: Fusarium verticillioides; ≥90% growth inhibition; 48 hours; vs 2% DMSO control; read-out: Compound Concentration (ppm) sufficient for ≥90% inhibition of Fm
Outline: as §1

[5] = test system: Fusarium virguliforme (Fv); assay: In vitro pathogen growth inhibition assay, Fv; assay type: cell-based; conditions: ≥90% growth inhibition, 48 hours, vs 2% DMSO control, read-out: Compound Concentration (ppm) sufficient for ≥90% inhibition of Fv
Outline: as §2

[6] = test system: Phytophthora capsici (Pc); assay: In vitro pathogen growth inhibition assay, Pc; assay type: cell-based; conditions: 48 h, ≥90% growth inhibition, 48 hours, vs 2% DMSO control, read-out: Compound Concentration (ppm) sufficient for ≥90% inhibition of Pc
Outline: as §2

[7] = test system: Rhizoctonia solani (Rs); assay: In vitro pathogen growth inhibition assay, Rs (mycelial plugs); assay type: cell-based; conditions: Rhizoctonia solani, 48 h, ≥90% growth inhibition; mycelial plugs; 48 hours; vs 2% DMSO control; read-out: Compound Concentration (ppm) sufficient for ≥90% inhibition of Rs
Outline: as §2

[8] = test system: Septoria tritici (St); assay: In vitro pathogen growth inhibition assay, St; assay type: cell-based; conditions: Zymoseptoria tritici, 48 h, ≥90% growth inhibition; 48 hours; vs 2% DMSO control; read-out: Compound Concentration (ppm) sufficient for ≥90% inhibition of St
Outline: as §1

[9] = test system: Blumeria graminis f. sp. hordei; assay: Foliar protection test for barley powdery mildew control; assay type: in vivo; conditions: foliar spray on Hordeum vulgare cv. Perry, inoculated 24 hours after treatment, evaluated 7 days later
Outline: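 Six-day-old barley (cv. Perry) sprayed to wetness on both leaf sides; 24 h later inoculated by shaking spores from infected stock plants. Kept at 20 to 22° C, 70% relative humidity; mildew colonization assessed 7 days later.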

[10] = test system: Sphaerotheca fuliginea; assay: Foliar protection for cucumber powdery mildew control; assay type: in vivo; conditions: foliar spray on Cucumis sativus cv. Straight Eight, inoculated 24 hours after treatment, evaluated 7 days later
Outline: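 Cucumber plants (cv. Straight Eight, 10 days old) sprayed to wetness on both leaf surfaces, then inoculated 24 h later by shaking sporulating stock plants over them. Held at 23–27 °C, 16 h light, 60% RH. Mildew colonization scored 7 days after inoculation, at compound concentrations of 10 ppm or lower.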

[11] = test system: Mycosphaerella graminicola (synthetic Septoria tritici); assay: Foliar protection test for wheat septoria leaf blotch control; assay type: in vivo; conditions: foliar spray on Triticum aestivum cv. WinterHawk, inoculated 1 hour after treatment, evaluated 16 days later
[12] = test system: Fusarium graminearum; assay type: in vivo; conditions: spray on flowering Triticum aestivum cv. Samson, inoculated 24 hours after treatment, evaluated 14 days later
[13] = test system: Puccinia triticina; assay: Foliar protection test for wheat leaf rust control; assay type: in vivo; conditions: foliar application to wheat (Triticum aestivum cv. Winterhawk), evaluated 10 days later
[14] = test system: Phakopsora pachyrhizi; assay: Foliar protection test for Asian soybean rust control; assay type: in vivo; conditions: foliar application to soybean (Glycine max AG4832), percent disease area evaluated 14 days later

Structure (SMILES) | IC90 [1] [µg/mL] | IC90 [2] [µg/mL] | IC90 [3] [µg/mL] | IC90 [4] [µg/mL] | IC90 [5] [µg/mL] | IC90 [6] [µg/mL] | IC90 [7] [µg/mL] | IC90 [8] [µg/mL] | Barley Powdery Mildew Control at a compound concentration of 10 ppm or lower [9] | Cucumber Powdery Mildew Control at a compound concentration of 10 ppm or lower [10] | Septoria Leaf Blotch Control at a compound concentration of 25 ppm or lower [11] | Wheat Fusarium Head Blight Control at a compound concentration of 25 ppm or lower [12] | Wheat Leaf Rust Control at a compound concentration of 10 ppm or lower [13] | Asian Soybean Rust Control at a compound concentration of 25 ppm or lower [14]
CCOC(=O)c1sc2c(c1C)c(=O)n(C(C)(C)C(=O)NC(C)C)c(=O)n2C[C@H](OC[C@H](C)C#N)c1cc(F)ccc1OC [Compound I-259, (R)-ethyl-1-(2-((R)-2-cyanopropoxy)-2-(5-fluoro-2-methoxyphenyl)ethyl)-3-(1-(isopropylamino)-2-methyl-1-oxopropan-2-yl)-5-methyl-2,4-dioxo-1,2,3,4-tetrahydrothieno[2,3-d]pyrimidine-6-carboxylate] | 0.4 (≈ 0.649 µM) | 0.08 (≈ 0.13 µM) | 0.4 (≈ 0.649 µM) | 0.08 (≈ 0.13 µM) | 0.4 (≈ 0.649 µM) | > 50 | 0.08 (≈ 0.13 µM) | > 10 | A (from 70% to 84% control of barley powdery mildew) | AA (≥85% control of cucumber powdery mildew) | C (from 25 to 49% control of wheat septoria leaf blotch) | B (from 50 to 69% control of wheat fusarium head blight) | C (from 25 to 49% control of wheat leaf rust) | B (from 50 to 69% control of Asian soybean rust)
COc1ccc(F)cc1[C@H](Cn1c(=O)n(C(C)(C)C(=O)NC2CCC2)c(=O)c2c(C)c(-n3cccn3)sc21)OCCC#N [Compound I-307, (R)-2-(1-(2-(2-cyanoethoxy)-2-(5-fluoro-2-methoxyphenyl)ethyl)-5-methyl-2,4-dioxo-6-(1H-pyrazol-1-yl)-1,4-dihydrothieno[2,3-d]pyrimidin-3 (2H)-yl)-N-cyclobutyl-2-methylpropanamide] | ≥ 0.4 | 2 (≈ 3.29 µM) | 2 (≈ 3.29 µM) | 0.08 (≈ 0.131 µM) | 0.4 (≈ 0.657 µM) | > 50 | 0.08 (≈ 0.131 µM) | > 50 | AA (≥85% control of barley powdery mildew) | AA (≥85% control of cucumber powdery mildew) | B (from 50 to 69% control of wheat septoria leaf blotch) | C (from 25 to 49% control of wheat fusarium head blight) | AA (≥85% control of wheat leaf rust) | C (from 25 to 49% control of Asian soybean rust)
CCOC(=O)c1sc2c(c1C)c(=O)n(C(C)(C)C(=O)NC(C)C)c(=O)n2C[C@H](O)c1cc(F)ccc1OC [Compound I-186, (R)-ethyl-1-(2-(5-fluoro-2-methoxyphenyl)-2-hydroxyethyl)-3-(1-(isopropylamino)-2-methyl-1-oxopropan-2-yl)-5-methyl-2,4-dioxo-1,2,3,4-tetrahydrothieno[2,3-d]pyrimidine-6-carboxylate] | 0.4 (≈ 0.728 µM) | 2 (≈ 3.64 µM) | 2 (≈ 3.64 µM) | 0.08 (≈ 0.146 µM) | 0.08 (≈ 0.146 µM) | > 50 | 0.4 (≈ 0.728 µM) | > 50 | A (from 70% to 84% control of barley powdery mildew) | C (from 25 to 49% control of cucumber powdery mildew) | D (<25% control of wheat septoria leaf blotch) | B (from 50 to 69% control of wheat fusarium head blight) | C (from 25 to 49% control of wheat leaf rust) | D (<25% control of Asian soybean rust)
COc1ccc(F)cc1[C@H](Cn1c(=O)n(C(C)(C)C(=O)NC(C)C)c(=O)c2c(C)c(-n3nccn3)sc21)OCC(C)(C)C#N [Compound I-213, (R)-2-(1-(2-(2-cyano-2-methylpropoxy)-2-(5-fluoro-2-methoxyphenyl)ethyl)-5-methyl-2,4-dioxo-6-(2H-1,2,3-triazol-2-yl)-1,4-dihydrothieno[2,3-d]pyrimidin-3 (2H)-yl)-N-isopropyl-2-methylpropanamide] | 0.4 (≈ 0.639 µM) | 0.4 (≈ 0.639 µM) | ≥ 0.08 | 0.08 (≈ 0.128 µM) | 0.4 (≈ 0.639 µM) | > 50 | 0.08 (≈ 0.128 µM) | > 50 | A (from 70% to 84% control of barley powdery mildew) | AA (≥85% control of cucumber powdery mildew) | AA (≥85% control of wheat septoria leaf blotch) | B (from 50 to 69% control of wheat fusarium head blight) | B (from 50 to 69% control of wheat leaf rust) | B (from 50 to 69% control of Asian soybean rust)
CCOC(=O)c1sc2c(c1C)c(=O)n(C(C)(C)C(=O)NC(C)C)c(=O)n2C[C@H](OCCS(C)(=O)=O)c1cc(F)ccc1OC [Compound I-285, (R)-ethyl-1-(2-(5-fluoro-2-methoxyphenyl)-2-(2-(methylsulfonyl)ethoxy)ethyl)-3-(1-(isopropylamino)-2-methyl-1-oxopropan-2-yl)-5-methyl-2,4-dioxo-1,2,3,4-tetrahydrothieno[2,3-d]pyrimidine-6-carboxylate] | 2 (≈ 3.05 µM) | 0.4 (≈ 0.61 µM) | ≥ 2 | 0.4 (≈ 0.61 µM) | 2 (≈ 3.05 µM) | 50 (≈ 76.2 µM) | 0.4 (≈ 0.61 µM) | ≥ 50 | A (from 70% to 84% control of barley powdery mildew) | AA (≥85% control of cucumber powdery mildew) | C (from 25 to 49% control of wheat septoria leaf blotch) | C (from 25 to 49% control of wheat fusarium head blight) | AA (≥85% control of wheat leaf rust) | C (from 25 to 49% control of Asian soybean rust)

— patent US10941157B2, “Pesticidal compositions and uses thereof” (Gilead Apollo, LLC, priority 2015, dated 2021)
